According to US12351574B2, “Selective ligands for modulation of GIRK channels” (Northeastern University, priority 2018, dated 2025):

Experiments:
open-field (OF) test = format: in vivo, rat
From the text: Open-field (OF) test: The OF apparatus is a plexiglass open-topped chamber (91.5×91.5×30.5 cm), filmed by a ceiling-mounted CCD camera and illuminated by a 25 W red light bulb placed 2 meters above the center of the chamber. […] The automated tracking system ANY-MAZE (ANY-MAZE, Stoelting Co., Wood Dale, IL, USA) was utilized to measure total distance traveled and mean speed.

GIRK1/4 = molecular target: T1, GIRK1/4 (Homo sapiens, UniProt P48544+P48549); assay: thallium flux assay, cells expressing GIRK1/4; format: cell-based; parameters: expressed in transfected cells
T1 sequence (P48549 1-501): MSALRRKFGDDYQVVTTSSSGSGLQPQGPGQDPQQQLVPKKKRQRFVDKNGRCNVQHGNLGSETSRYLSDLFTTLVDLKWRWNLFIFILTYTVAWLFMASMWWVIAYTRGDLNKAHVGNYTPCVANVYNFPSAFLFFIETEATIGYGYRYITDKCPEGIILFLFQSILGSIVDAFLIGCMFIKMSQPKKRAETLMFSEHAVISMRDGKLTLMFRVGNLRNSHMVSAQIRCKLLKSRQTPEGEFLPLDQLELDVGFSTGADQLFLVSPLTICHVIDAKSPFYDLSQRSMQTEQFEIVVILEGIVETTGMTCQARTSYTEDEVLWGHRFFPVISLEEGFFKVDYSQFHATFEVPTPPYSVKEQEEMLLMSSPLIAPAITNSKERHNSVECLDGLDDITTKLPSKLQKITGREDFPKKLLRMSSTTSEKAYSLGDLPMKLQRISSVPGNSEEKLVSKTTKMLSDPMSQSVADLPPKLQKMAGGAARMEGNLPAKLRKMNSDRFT
T1 sequence (P48544 1-419): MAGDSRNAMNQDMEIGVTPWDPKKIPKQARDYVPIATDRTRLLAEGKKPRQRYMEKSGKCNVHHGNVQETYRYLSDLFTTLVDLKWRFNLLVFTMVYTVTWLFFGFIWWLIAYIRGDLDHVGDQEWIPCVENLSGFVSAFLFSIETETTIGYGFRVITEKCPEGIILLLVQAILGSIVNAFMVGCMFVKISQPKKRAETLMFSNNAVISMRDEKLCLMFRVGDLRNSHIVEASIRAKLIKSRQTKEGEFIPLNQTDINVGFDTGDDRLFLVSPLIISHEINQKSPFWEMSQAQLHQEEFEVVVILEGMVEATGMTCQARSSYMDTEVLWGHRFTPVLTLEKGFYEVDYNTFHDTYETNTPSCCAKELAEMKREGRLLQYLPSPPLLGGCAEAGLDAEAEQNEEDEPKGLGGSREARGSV
From the text: Previous studies have utilized the thallium flux Assay to test the effects of ML297 and related compounds in cells coexpressing GIRK1/2 and GIRK1/4. In order to fully investigate the selective activation of GAT compounds, the inventors also utilized this assay. […] To determine the differences between the thallium flux and TEVC assays, the inventors computationally tested whether the binding of selective compounds could affect the selectivity of the pore area. The Cα RMSF of the region between the M1 and M2 helices of the channel were calculated during the MD simulation with or without ML297 and the selective GAT compounds in the GIRK2/2^FD and GIRK4/4^FD systems (FIGS. 60A-60B). […] To further test this idea, the inventors compared the 10 μM GAT1508-induced thallium and potassium currents in oocytes expressing GIRK1/2 and GIRK1/4 by TEVC recording (FIG. 61B). […] In an effort to enhance the current, the TEVC recording was performed at a holding potential of −100 mV.

[1] = 30 and 60 mg/kg, 30 min after treatment

## Cc1cc(NC(=O)Nc2ccc(Br)s2)n(-c2ccccc2)n1 [GAT1508, 1-(5-bromothiophen-2-yl)-3-(3-methyl-1-phenyl-1H-pyrazol-5-yl)urea]
open-field (OF) test; 10 and 30 mg/kg i.p.
  mean speed in the OF test (in words): comparable to the vehicle group
  total distance travelled in the OF test (in words): comparable to the vehicle group
GIRK1/4; concentration-response, FIG. 61A
  activation of GIRK1/4 in thallium flux assay (in words): also activated the cardiac heteromer

## Cc1cc(NC(=O)Nc2ccc(F)c(F)c2)n(-c2ccccc2)n1 [ML297, reference compound]
open-field (OF) test; [1]
  mean speed in the open arena (in words): comparable to the vehicle group
  total distance traveled in the open arena (in words): comparable to the vehicle group
GIRK1/4; thallium flux assay
  EC50: ~2890 nM
